Laboratory results taken from publication PMC3855626 (Biochemistry, 2013).
“And” between values parts separate entries of the source, which are not always exact repeats. Equal entries are not always repeated. Marks after values point to notes of the source that are not given here.

Assays:
wild type M4 receptors = format: binding, human
M2 wild type = M2 wild type (Homo sapiens, UniProt P08172); format: binding
M3 D114N/D148N [1] = target: T1, M3 D114N/D148N (Homo sapiens, UniProt P20309, D114N/D148N)
M3 D148N + M3 D114N = format: binding, human
M3 D148N = format: binding, human
guinea pig ileum = conditions: cited from earlier work
M3 D114N/D148N [2] = target: T1, M3 D114N/D148N; format: binding
M4 D78N = format: binding, human
[3] = target: wild type M1 muscarinic receptors (Homo sapiens, UniProt P11229); format: binding
M4 D78N/D112N [4] = target: T2, M4 D78N/D112N (Homo sapiens, UniProt P08173, D112N/D78N); experiment: biochemical; format: binding
M4 D112N = format: binding, human
M3 receptors = format: binding, human
[5] = system: M1 – M4 muscarinic receptors; format: binding, human
wild type M4 receptor = wild type M4 receptor (Homo sapiens, UniProt P08173); experiment: biochemical; format: binding
M2 D69N/D103N [6] = target: T3, M2 D69N/D103N (Homo sapiens, UniProt P08172, D103N/D69N); experiment: biochemical; format: binding
M2 D69N/D103N [7] = target: T3, M2 D69N/D103N; format: binding
M4 D78N/D112N [8] = target: T2, M4 D78N/D112N; format: binding
M4 receptors = format: binding, human
M2 D69N = format: binding, human
M4 D1 12N + M4 D78N = format: binding, human
M2 D69N/D103N [9] = target: T3, M2 D69N/D103N; format: binding; remark: listed apart in the source
[10] = target: wild type M2 muscarinic receptors (Homo sapiens, UniProt P08172); format: binding
M4 D78N/D112N [11] = target: T2, M4 D78N/D112N; format: binding; remark: listed apart in the source
M3 D114N = format: binding, human
[12] = system: cerebral muscarinic receptors; format: binding, rat
M2 D103N + M2 D69N = format: binding, human
M2 D103N = M2 D103N (Homo sapiens, UniProt P08172, D103N); format: binding
[13] = read-out: inhibition of [3H]NMS binding

T2 sequence (P08173 whole entry D78N/D112N, looked up): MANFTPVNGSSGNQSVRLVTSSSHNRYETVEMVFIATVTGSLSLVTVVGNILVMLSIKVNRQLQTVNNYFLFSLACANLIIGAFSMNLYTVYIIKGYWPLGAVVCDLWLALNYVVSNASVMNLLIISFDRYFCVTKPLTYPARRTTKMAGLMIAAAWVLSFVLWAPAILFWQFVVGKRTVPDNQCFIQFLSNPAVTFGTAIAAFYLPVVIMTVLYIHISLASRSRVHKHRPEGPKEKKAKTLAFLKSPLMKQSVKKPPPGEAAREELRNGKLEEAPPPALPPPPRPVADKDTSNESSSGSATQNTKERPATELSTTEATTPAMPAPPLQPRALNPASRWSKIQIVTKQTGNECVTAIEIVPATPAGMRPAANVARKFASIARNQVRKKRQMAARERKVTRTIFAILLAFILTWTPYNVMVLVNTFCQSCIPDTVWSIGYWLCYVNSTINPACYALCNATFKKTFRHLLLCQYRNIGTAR
T3 sequence (P08172 whole entry D69N/D103N, looked up): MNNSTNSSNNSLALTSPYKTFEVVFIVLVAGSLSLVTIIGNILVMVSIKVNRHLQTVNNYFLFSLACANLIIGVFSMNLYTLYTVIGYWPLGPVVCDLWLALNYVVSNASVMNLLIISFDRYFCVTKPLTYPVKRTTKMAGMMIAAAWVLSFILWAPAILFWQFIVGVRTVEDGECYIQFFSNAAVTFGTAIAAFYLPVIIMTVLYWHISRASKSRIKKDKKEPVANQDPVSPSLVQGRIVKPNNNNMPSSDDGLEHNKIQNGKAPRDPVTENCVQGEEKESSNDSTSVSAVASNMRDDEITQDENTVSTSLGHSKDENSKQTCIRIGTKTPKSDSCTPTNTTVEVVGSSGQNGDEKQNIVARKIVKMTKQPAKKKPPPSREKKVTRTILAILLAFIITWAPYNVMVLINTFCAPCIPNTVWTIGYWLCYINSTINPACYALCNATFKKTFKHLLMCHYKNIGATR
Chain of wild type M4 receptor (P08173 whole entry): as the sequence (P08173 whole entry D78N/D112N, looked up) above, with N78D, N112D counted along it
T1 sequence (P20309 whole entry D114N/D148N, looked up): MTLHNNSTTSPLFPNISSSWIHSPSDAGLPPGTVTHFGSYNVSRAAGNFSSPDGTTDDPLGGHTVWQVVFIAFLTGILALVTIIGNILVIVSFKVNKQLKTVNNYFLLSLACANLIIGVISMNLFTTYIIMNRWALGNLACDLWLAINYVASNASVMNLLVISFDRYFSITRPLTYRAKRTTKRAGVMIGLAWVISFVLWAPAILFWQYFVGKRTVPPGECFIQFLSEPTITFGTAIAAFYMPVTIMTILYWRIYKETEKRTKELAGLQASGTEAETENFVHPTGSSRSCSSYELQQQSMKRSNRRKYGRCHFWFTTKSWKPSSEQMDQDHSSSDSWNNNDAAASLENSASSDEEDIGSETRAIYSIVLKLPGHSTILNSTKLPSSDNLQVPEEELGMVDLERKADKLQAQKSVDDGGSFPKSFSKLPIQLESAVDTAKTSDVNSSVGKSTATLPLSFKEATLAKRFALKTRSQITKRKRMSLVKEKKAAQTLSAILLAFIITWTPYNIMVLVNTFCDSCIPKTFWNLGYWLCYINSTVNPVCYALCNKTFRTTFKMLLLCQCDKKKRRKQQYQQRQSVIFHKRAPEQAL
Chain of M2 wild type (P08172 whole entry): as the sequence (P08172 whole entry D69N/D103N, looked up) above, with N69D, N103D counted along it
Chain of M2 D103N (P08172 whole entry D103N, looked up): as the sequence (P08172 whole entry D69N/D103N, looked up) above, with N69D counted along it
Chain of wild type M2 muscarinic receptors (P08172 whole entry): as the sequence (P08172 whole entry D69N/D103N, looked up) above, with N69D, N103D counted along it
Chain of wild type M1 muscarinic receptors (P11229 whole entry): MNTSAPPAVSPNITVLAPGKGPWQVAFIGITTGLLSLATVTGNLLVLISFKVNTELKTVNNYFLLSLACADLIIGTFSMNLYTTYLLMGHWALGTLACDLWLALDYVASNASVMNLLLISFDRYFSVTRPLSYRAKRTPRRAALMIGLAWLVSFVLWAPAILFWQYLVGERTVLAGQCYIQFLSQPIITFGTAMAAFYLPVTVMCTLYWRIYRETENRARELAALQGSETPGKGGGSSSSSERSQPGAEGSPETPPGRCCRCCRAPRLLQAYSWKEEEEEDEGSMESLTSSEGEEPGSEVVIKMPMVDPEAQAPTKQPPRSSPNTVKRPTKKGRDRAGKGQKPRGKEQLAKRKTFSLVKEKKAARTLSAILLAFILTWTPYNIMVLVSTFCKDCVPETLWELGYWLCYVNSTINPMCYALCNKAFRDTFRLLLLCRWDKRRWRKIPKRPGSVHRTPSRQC

## CC(=O)OCC[N+](C)(C)C [Acetylcholine, acetylcholine]
Wild type M4 receptors
  affinity relative to the aziridinium ion of AChM: five-fold higher affinity
M2 wild type
  Hill slope of competition curve: 0.69
  affinity relative to the aziridinium ion of AChM: about 15 fold
M3 D114N/D148N [1]
  Hill slope of competition curve: 0.56

## CN(CC#CCOC(=O)Nc1cccc(Cl)c1)CCBr [BR384, 4-[(2-bromoethyl)methyl-amino]-2-butynyl N-(3-chlorophenyl)carbamate]
M3 D148N + M3 D114N
  Δ log K1: 0.48 ± 0.08
M3 D148N
  Δ log K1: 1.17 ± 0.07
Guinea pig ileum
  contractile action: lack of contractile action
M3 D114N/D148N [2]
  Δ log K1: 0.75 ± 0.12
M4 D78N
  increase in affinity relative to wild type: about 30 fold
  Δ log K1: −1.27 ± 0.11
[3]
  receptors alkylated after adding the stopping solution: 28%
M4 D78N/D112N [4]
  IC50: 69.2 µM
M4 D78N/D112N [4]; [13]
  inhibition at 300 µM: 88 ± 0.7%
M4 D112N
  Δ log K1: 0.65 ± 0.13
M3 receptors
  maximum estimate of b: 0.067
[5]
  affinity of the aziridinium ion relative to McN-A-343: four- to seven-fold higher affinity
Wild type M4 receptor
  average estimate of k1: 0.82 min⁻¹
  b (proportion of receptors that can bind [3H]NMS but not be alkylated): 7.7 ± 1.8% and 7.7%
  k1 (rate constant for alkylation): 0.93 ± .020 min⁻¹
  rate constant (k1): 0.99 ± 0.045 min⁻¹ and 1.05 ± 0.10 min⁻¹ and 0.75 ± 0.06 min⁻¹ and 0.74 ± 0.086 min⁻¹
Wild type M4 receptor; average estimate of log K1
  Kd: 8.71 µM
Wild type M4 receptor; log K1 (dissociation constant of the aziridinium ion)
  Kd: 8.91 µM
Wild type M4 receptor; log dissociation constant (log K1)
  Kd: 12.3 µM and 7.94 µM and 6.76 µM
M2 D69N/D103N [6]
  IC50: 28.8 µM
M2 D69N/D103N [6]; [13]
  inhibition at 300 µM: 97 ± 1.3%
M2 D69N/D103N [7]
  Δ log K1: −0.25 ± 0.25
M4 D78N/D112N [8]
  alkylation: 44 ± 0.6%
M4 receptors
  maximum estimate of b: 0.085
M2 D69N
  increase in affinity relative to wild type: about 30 fold
  Δ log K1: −1.39 ± 0.35
M4 D1 12N + M4 D78N
  Δ log K1: −0.62 ± 0.17
M2 D69N/D103N [9]
  alkylation: 48 ± 4.2%
[10]
  receptors alkylated after adding the stopping solution: 28%
M4 D78N/D112N [11]
  Δ log K1: 0.69 ± 0.32 ^c
M3 D114N
  increase in affinity relative to wild type: ~5 fold
  Δ log K1: −0.69 ± 0.02
[12]
  rate of recovery of [3H]NMS binding: negligible
M2 D103N + M2 D69N
  Δ log K1: −0.17 ± 0.43
M2 D103N
  Δ log K1: 1.23 ± 0.26
